Columns and labels:
Tysnd1 = test: Protease inhibition assay: processing of Acaa1 and Acox1 by recombinant Tysnd1; assay type: biochemical, mouse; conditions: preincubated 30 min at 25° C., then 12 h at 37° C., substrates Acaa1 and Acox1
IDE = target: T1, IDE (Homo sapiens, UniProt P14735); conditions: cited from earlier work
T1 sequence (P14735 1-1019): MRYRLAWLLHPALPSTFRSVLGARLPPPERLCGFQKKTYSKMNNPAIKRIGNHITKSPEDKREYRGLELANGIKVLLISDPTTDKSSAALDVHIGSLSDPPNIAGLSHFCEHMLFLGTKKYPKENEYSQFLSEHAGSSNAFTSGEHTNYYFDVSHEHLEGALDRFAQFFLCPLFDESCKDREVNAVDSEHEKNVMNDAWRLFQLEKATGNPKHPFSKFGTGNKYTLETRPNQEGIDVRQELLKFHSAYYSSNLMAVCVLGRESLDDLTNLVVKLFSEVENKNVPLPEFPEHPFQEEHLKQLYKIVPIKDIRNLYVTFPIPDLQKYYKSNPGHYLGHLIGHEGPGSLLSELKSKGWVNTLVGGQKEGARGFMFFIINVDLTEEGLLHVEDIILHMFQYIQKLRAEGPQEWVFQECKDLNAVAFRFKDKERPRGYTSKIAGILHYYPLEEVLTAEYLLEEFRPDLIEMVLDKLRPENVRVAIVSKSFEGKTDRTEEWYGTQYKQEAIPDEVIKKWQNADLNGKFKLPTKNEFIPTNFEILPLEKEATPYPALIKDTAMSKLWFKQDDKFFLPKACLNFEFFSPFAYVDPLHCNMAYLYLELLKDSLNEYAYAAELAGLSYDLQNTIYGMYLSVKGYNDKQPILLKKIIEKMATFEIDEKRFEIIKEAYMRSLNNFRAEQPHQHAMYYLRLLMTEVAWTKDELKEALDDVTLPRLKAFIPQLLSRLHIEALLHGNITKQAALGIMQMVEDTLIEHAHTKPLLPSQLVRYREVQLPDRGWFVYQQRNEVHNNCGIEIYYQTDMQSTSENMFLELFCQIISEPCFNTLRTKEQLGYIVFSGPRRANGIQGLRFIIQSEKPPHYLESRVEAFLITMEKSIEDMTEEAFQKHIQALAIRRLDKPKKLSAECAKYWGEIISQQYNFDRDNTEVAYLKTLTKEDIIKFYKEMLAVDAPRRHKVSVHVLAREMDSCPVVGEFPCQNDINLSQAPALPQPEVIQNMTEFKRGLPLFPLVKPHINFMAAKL

fatty acid oxidation = conditions: reference 80; cited from earlier work

Compound	Inhibition of peroxisomal protease IDE (IDE)	Tysnd1 processing activity in the presence of protease inhibitor (Tysnd1; inhibitor 1 mM)	Fatty acid oxidation (fatty acid oxidation)	further results
CC(C)C[C@H](NC(=O)[C@H]1O[C@@H]1C(=O)O)C(=O)NCCCCN=C(N)N (relative stereo) [E64, trans-epoxysuccinyl-1-leucylamido-(4-guanidino) butane]	not	–	–	Tysnd1 processing activity in the presence of protease inhibitor (Tysnd1; inhibitor 20 μM): resistant
c1cnc2c(c1)ccc1cccnc12 [1,10-phenanthroline]	–	Partial inhibition	–	–
CCN1C(=O)C=CC1=O [NEM, N-ethylmaleimide]	inhibited	completely abolished	–	–
CC(=O)N[C@@H](CC(C)C)C(=O)N[C@@H](CC(C)C)C(=O)N[C@H](C=O)CCCNC(=N)N [leupeptin]	not	–	–	Tysnd1 processing activity in the presence of protease inhibitor (Tysnd1; inhibitor 10 μM): resistant
COc1ccccc1OCC(O)CN1CCN(CC(=O)Nc2c(C)cccc2C)CC1 (stereo not drawn) [ranolazine]	–	–	inhibit	–
COc1ccc(CN2CCNCC2)c(OC)c1OC [trimetazidine]	–	–	inhibit	–

— US7605005B2, “Method of screening for agents that modulate Tysnd1 level or activity in a cell” (Riken, priority 2005, dated 2009)
